Measured values from ChEMBL document CHEMBL1201862, “PubChem BioAssay data set” (2004).
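Dose response: 5 concentrations. Exposure: 48 h. Format: 96-well plates. Endpoint: linear interpolation; highest concentration if not reached. At the GI50, growth is halved.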 The source made the active and inactive calls. No stated cut-off is given here; in the data, active = GI50 up to about 1.1 µM and inactive = higher.

Legend:
Assay in all cases: NCI-60 cell line screen, 48 h
[1] = test system: ACHN
[2] = test system: U-251
[3] = test system: T47D
[4] = test system: SNB-75
[5] = test system: NCI-H226
[6] = test system: OVCAR-3
[7] = test system: HT-29
[8] = test system: Hs-578T
[9] = test system: SW-620
[10] = test system: M14
[11] = test system: BT-549
[12] = test system: EKVX
[13] = test system: SN12C
[14] = test system: SK-MEL-5
[15] = test system: PC-3
[16] = test system: HL-60
[17] = test system: SK-MEL-2
[18] = test system: KM12
[19] = test system: K562
[20] = test system: COLO 205

Structure (SMILES)	GI50 [1]	GI50 [2]	GI50 [3]	GI50 [4]	GI50 [5]	GI50 [6]	GI50 [7]	GI50 [8]	GI50 [9]	GI50 [10]	GI50 [11]	GI50 [12]	GI50 [13]	GI50 [14]	GI50 [15]	GI50 [16]	GI50 [17]	GI50 [18]	GI50 [19]	GI50 [20]
NC(=O)C1CCN(Cc2c(Cl)c(Cl)c(CN3CCC(C(N)=O)CC3)c(Cl)c2Cl)CC1	> 100 µM (inactive)	34.8 µM (inactive)	> 100 µM (inactive)	24.3 µM (inactive)	> 100 µM (inactive)	> 100 µM (inactive)	> 100 µM (inactive)	49.9 µM (inactive)	> 100 µM (inactive)	86.3 µM (inactive)	> 100 µM (inactive)	38.6 µM (inactive)	> 100 µM (inactive)	> 100 µM (inactive)	> 100 µM (inactive)	> 100 µM (inactive)	42.9 µM (inactive)	> 100 µM (inactive)	> 100 µM (inactive)	> 100 µM (inactive)
O=C1c2ccccc2-[n+]2ccc3c([nH]c4ccccc43)c21 [FASCAPLYSIN CHLORIDE]	0.557 µM (active)	0.274 µM (active)	0.755 µM (active)	0.452 µM (active)	0.964 µM (active)	0.145 µM (active)	0.37 µM (active)	1.24 µM (inactive)	0.296 µM (active)	0.159 µM (active)	2.26 µM (inactive)	0.274 µM (active)	0.231 µM (active)	0.14 µM (active)	0.269 µM (active)	0.404 µM (active)	0.226 µM (active)	0.18 µM (active)	0.925 µM (active)	0.21 µM (active)
COC(=O)C1(Cc2ccc3c(c2)CCC3)Cc2cc3c(cc2C1)CCC3	38.3 µM (inactive)	37.4 µM (inactive)	21.4 µM (inactive)	46.6 µM (inactive)	33.7 µM (inactive)	45.6 µM (inactive)	22.5 µM (inactive)	65.6 µM (inactive)	75.7 µM (inactive)	35.2 µM (inactive)	42.7 µM (inactive)	45.2 µM (inactive)	50.5 µM (inactive)	27 µM (inactive)	46 µM (inactive)	36.9 µM (inactive)	19.9 µM (inactive)	33.2 µM (inactive)	30.5 µM (inactive)	38.5 µM (inactive)
CC[N+]1(C)CCC(O)(c2ccc(Cl)c(Cl)c2)C(C(=O)c2ccc(Cl)c(Cl)c2)C1 (stereo not given)	> 10 µM (inactive)	> 10 µM (inactive)	> 10 µM (inactive)	> 10 µM (inactive)	> 10 µM (inactive)	> 10 µM (inactive)	> 10 µM (inactive)	> 10 µM (inactive)	> 10 µM (inactive)	> 10 µM (inactive)	> 10 µM (inactive)	> 10 µM (inactive)	> 10 µM (inactive)	> 10 µM (inactive)	> 10 µM (inactive)	> 10 µM (inactive)	> 10 µM (inactive)	> 10 µM (inactive)	> 10 µM (inactive)	> 10 µM (inactive)
CCOC(=O)CCC(NC(=O)c1ccc(OCc2ccc3nc(-c4ccccc4)c(Cl)nc3c2)cc1)C(=O)OCC (stereo not given)	26.9 µM (inactive)	18.4 µM (inactive)	16.6 µM (inactive)	16.8 µM (inactive)	19.2 µM (inactive)	> 31.6 µM (inactive)	> 31.6 µM (inactive)	14.9 µM (inactive)	> 31.6 µM (inactive)	> 31.6 µM (inactive)	22.3 µM (inactive)	19.9 µM (inactive)	> 100 µM (inactive)	> 31.6 µM (inactive)	7.4 µM (inactive)	7.29 µM (inactive)	12.4 µM (inactive)	> 31.6 µM (inactive)	3.88 µM (inactive)	> 100 µM (inactive)
CNC(=O)N(CCC#N)CCCN(C(=O)N(C)C)c1ccccc1	> 100 µM (inactive)	> 100 µM (inactive)	> 100 µM (inactive)	> 100 µM (inactive)	> 100 µM (inactive)	> 100 µM (inactive)	> 100 µM (inactive)	> 100 µM (inactive)	> 100 µM (inactive)	> 100 µM (inactive)	> 100 µM (inactive)	> 100 µM (inactive)	> 100 µM (inactive)	> 100 µM (inactive)	> 100 µM (inactive)	> 100 µM (inactive)	> 100 µM (inactive)	> 100 µM (inactive)	> 100 µM (inactive)	> 100 µM (inactive)
O=C1Nc2nccnc2C(=O)N2CCC[C@@H]12	> 100 µM (inactive)	> 100 µM (inactive)	> 100 µM (inactive)	> 100 µM (inactive)	> 100 µM (inactive)	> 100 µM (inactive)	> 100 µM (inactive)	> 100 µM (inactive)	> 100 µM (inactive)	> 100 µM (inactive)	> 100 µM (inactive)	> 100 µM (inactive)	> 100 µM (inactive)	> 100 µM (inactive)	> 100 µM (inactive)	> 100 µM (inactive)	> 100 µM (inactive)	> 100 µM (inactive)	> 100 µM (inactive)	> 100 µM (inactive)
CCCN(CCCC(NC(C)=O)C(=O)NCc1ccccc1)C(=O)N(CCCl)N=O (stereo not given)	3.09 µM (inactive)	3.53 µM (inactive)	> 100 µM (inactive)	5.58 µM (inactive)	17.7 µM (inactive)	20.9 µM (inactive)	30.5 µM (inactive)	> 100 µM (inactive)	7.4 µM (inactive)	14.4 µM (inactive)	19.2 µM (inactive)	31.7 µM (inactive)	15.8 µM (inactive)	21.2 µM (inactive)	> 100 µM (inactive)	3.97 µM (inactive)	26.9 µM (inactive)	21.1 µM (inactive)	16.9 µM (inactive)	24.4 µM (inactive)
